Each structure is given as a SMILES string.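 96-well plates; 48 h exposure; 5 concentrations. Endpoints by linear interpolation between flanking doses. Not reached: highest tested concentration assigned. GI50 is the concentration that inhibits growth by half. TGI: total growth inhibition.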

Test systems include HCT-116 colon; HCT-15 colon; HS 578T breast; KM12 colon; LOX IMVI melanoma; NCI/ADR-RES ovarian; SF-295 CNS; SK-MEL-2 melanoma; TK-10 renal; UACC-62 melanoma.
What all share (assay): NCI-60 cell line screen, 48 h

Take `Cc1cccc2nc3cccc(C(=O)NCCC[N+](C)(CCCNC(=O)c4cccc5nc6cccc(C)c6nc45)Cc4c([N+](=O)[O-])ncn4C)c3nc12`: the TGI is greater than 1100 µM in the test on HCT-116 colon; greater than 1100 µM with HCT-15 colon; greater than 1100 µM in the test with HS 578T breast; greater than 1100 µM in the test with KM12 colon; 18.8 µM with LOX IMVI melanoma; greater than 1100 µM in the test on NCI/ADR-RES ovarian. The TGI in the test with SF-295 CNS, in the test with SK-MEL-2 melanoma, with TK-10 renal and in the test on UACC-62 melanoma was greater than 1100 µM throughout. Besides, the GI50 in the test on HCT-15 colon is 13.6 µM; with KM12 colon, 17.5 µM; in the test with NCI/ADR-RES ovarian it was 131 µM; in the test on SF-295 CNS, 25 µM; in the test with SK-MEL-2 melanoma, 260 µM; in the test with TK-10 renal it was 118 µM. Also, the GI50 in the test on UACC-62 melanoma was 38.8 µM.
Turning to `O=c1[nH]c2ccccc2nc1/C=C(\O)C(F)F`, the TGI in the test with HCT-116 colon, in the test with HCT-15 colon, with HS 578T breast, in the test on KM12 colon, with LOX IMVI melanoma and in the test on NCI/ADR-RES ovarian was greater than 100 µM each time. The TGI with SF-295 CNS, in the test with SK-MEL-2 melanoma, in the test with TK-10 renal and with UACC-62 melanoma was greater than 100 µM in each case.
As to `S=C1C(=Nc2ccccc2)N(c2ccccc2)/C(=N\c2ccccn2)N1c1ccccc1`, the TGI in the test on HCT-116 colon came to 30.4 µM; in the test with HCT-15 colon, 27.7 µM; in the test on HS 578T breast, 39.5 µM; with KM12 colon, 25.5 µM; in the test with LOX IMVI melanoma, 21.9 µM; in the test on NCI/ADR-RES ovarian, 33.7 µM. Also, the TGI came to 29.9 µM in the test on SF-295 CNS, 24.6 µM in the test on SK-MEL-2 melanoma, 28.8 µM in the test on TK-10 renal and 17.1 µM in the test with UACC-62 melanoma.
In the case of `O=C(/C=C/c1ccc(-c2ccccc2)cc1)NCc1ccc(C(=O)NCCc2c[nH]c3ccccc23)cc1`, the TGI in the test with HCT-116 colon, in the test on HCT-15 colon, in the test on HS 578T breast, in the test on KM12 colon, in the test on LOX IMVI melanoma and in the test with NCI/ADR-RES ovarian was greater than 100 µM throughout. The TGI in the test with SF-295 CNS was 38.6 µM; in the test with SK-MEL-2 melanoma it was greater than 100 µM; with TK-10 renal it was 86.8 µM; in the test on UACC-62 melanoma, greater than 100 µM.
In the case of `O=C1C=C2CO[C@H]3OC[C@H](O)[C@@H]1[C@@H]23`, the TGI with HCT-116 colon, with HCT-15 colon, with HS 578T breast, in the test on KM12 colon, in the test on LOX IMVI melanoma and in the test with NCI/ADR-RES ovarian was greater than 100 µM in each case. In addition, the TGI was greater than 100 µM with SF-295 CNS, 37.3 µM in the test with SK-MEL-2 melanoma, greater than 100 µM in the test on TK-10 renal and greater than 100 µM in the test on UACC-62 melanoma.
On to `C=CCN(c1cc(OCc2ccccc2)c(NC(C)=O)cc1[N+](=O)[O-])S(C)(=O)=O`, for which the TGI is greater than 100 µM with HCT-116 colon; greater than 100 µM in the test on HCT-15 colon; 56.7 µM in the test on HS 578T breast; greater than 100 µM in the test on KM12 colon; greater than 100 µM in the test with LOX IMVI melanoma; greater than 100 µM with NCI/ADR-RES ovarian. Further, the TGI in the test on SF-295 CNS is 60.4 µM; in the test with SK-MEL-2 melanoma it was 73.1 µM; with TK-10 renal, greater than 100 µM; in the test on UACC-62 melanoma, greater than 100 µM.
As to `COCN1CCN=c2c1c1c3c(c4ccccc4n23)CCC1`, the TGI with HCT-116 colon, in the test on HCT-15 colon, with HS 578T breast, in the test with KM12 colon, in the test on LOX IMVI melanoma and with NCI/ADR-RES ovarian was greater than 100 µM throughout. In addition, the TGI in the test on SF-295 CNS, with SK-MEL-2 melanoma, in the test with TK-10 renal and with UACC-62 melanoma was greater than 100 µM in each case.
In the case of `O=C(CN1CCCCC1)c1ccc2c(c1)Sc1ccccc1O2`, the TGI in the test on HCT-116 colon turned out to be 35 µM; in the test with HCT-15 colon, 24.6 µM; in the test on HS 578T breast it was 21.6 µM; in the test with KM12 colon, 30.1 µM; with LOX IMVI melanoma, 40.3 µM; in the test on NCI/ADR-RES ovarian it was 35 µM. In addition, the TGI was 30.9 µM with SF-295 CNS, 32.8 µM in the test with SK-MEL-2 melanoma, 44.6 µM in the test on TK-10 renal and 25.7 µM in the test with UACC-62 melanoma.
Regarding `N#Cc1c(N2CCCC2)ncn(Cc2ccccc2)c1=S`, the TGI in the test on HCT-116 colon, in the test with HCT-15 colon, in the test with HS 578T breast, in the test on KM12 colon, with LOX IMVI melanoma and in the test on NCI/ADR-RES ovarian was greater than 100 µM each time. Besides, the TGI in the test with SF-295 CNS, in the test with SK-MEL-2 melanoma, in the test on TK-10 renal and in the test on UACC-62 melanoma was greater than 100 µM throughout.
`COc1ccc(/C=C2\CC3C4CC=C5C[C@@H](O)CC[C@]5(C)C4CC[C@]3(C)\C2=N\O)cc1OC` (some centres not stated): the TGI with HCT-116 colon, with HCT-15 colon, in the test with HS 578T breast, with KM12 colon, with LOX IMVI melanoma and in the test on NCI/ADR-RES ovarian was greater than 100 µM throughout. Also, the TGI in the test with SF-295 CNS is 80.9 µM; with SK-MEL-2 melanoma, 42.3 µM; in the test with TK-10 renal it was greater than 100 µM; in the test on UACC-62 melanoma it was 25.6 µM.
As for `C=C1C(=O)O[C@H]2C/C(C)=C/CC/C(C)=C/CC[C@@](C)(O)[C@@H](I)C[C@@H]12`, the TGI is 12.3 µM with HCT-116 colon; 20.1 µM with HCT-15 colon; 21.5 µM in the test on HS 578T breast; 18.5 µM in the test with KM12 colon; 3.31 µM in the test with LOX IMVI melanoma; 24.7 µM in the test on NCI/ADR-RES ovarian. Moreover, the TGI with SF-295 CNS was determined as 32.8 µM; in the test on SK-MEL-2 melanoma, 25.8 µM; with TK-10 renal it was 23.6 µM; in the test with UACC-62 melanoma, 23.9 µM.

(Values after PubChem BioAssay (NCI).)
